Laboratory results published in patent US5574033A, “Heterocyclic compound and cardiotonic agent containing the same as effective component” (Zenyaku Kogyo Kabushiki Kaisha, priority 1991, dated 1996).

Legend:
[1] = test system: papillary muscles of a right ventricle; assay: Pharmacological Test 1: contraction of isolated right ventricular papillary muscles upon electric stimulation (inotropic effect); parameters: species or system male Hartley guinea pig; settings: 3×10^-5 M; percentage of increment of contractile force, isoprotelenol (1×10^-8 M) = 100%; 1 Hz stimulation, 30° C.
Experimental: (§1) Nos. of the compounds in the pharmacological tests 1 and 2 correspond to those in Examples referred to hereinafter.
(§2) A heart was removed from a male Hartley guinea pig (having a body weight of about 400 g or so) and a right atrium and papillary muscles of a right ventricle were separated from the removed heart. These preparations were suspended in 15 ml of Magnus' bath under load of 0.5 g (papillary muscles) or 1.0 g (right atria). Contraction of papillary muscles upon electric stimulation (1 Hz, 5 msec, 1.5×threshold voltage) and spontaneous contraction of the right atria were recorded through a transducer (manufactured by Orientec, T7-8-240) by a polygraph system (manufactured by NIHONKOHDEN, RMP-6008 and WT-685G).
(§3) Krebs-Henseleit solution was used as nutritive liquid bubbled with mixed gases of 95% O2 with 5% CO2 at 30° C. The value of inotropic effect is a percentage of increment of contractile force by samples when that by isoprotelenol (1×10^-8 M) is considered to be 100%. The value of chronotropic effect is a percentage of atrial rate after the injection of samples when the atrial rate before the injection is considered to be 100%.

right atria = assay: Pharmacological Test 1: spontaneous contraction of isolated right atria (chronotropic effect); parameters: species or system male Hartley guinea pig; settings: Cavia porcellus; 3×10^-5 M; percentage of atrial rate after injection, rate before injection = 100%; 30° C.
Experimental: as §1, §2, §3

Row | SMILES | Inotropic Effect [1] [%] | activity at 30 µM (right atria) [%]
1 | O=C1CSC(C2=CCN(CC(O)c3cccc(O)c3)CC2)=NN1 (centres unmarked) [Compound 27, 2-[1-[2-Hydroxy-2-(3-hydroxyphenyl)ethyl]-1,2,5,6-tetrahydropyrid-4-yl]-4H,6H-1,3,4-thiadiazin-5-one] | 63.1 | 98.7
2 | Cc1ccc(C(O)CN2CC=C(C3=NNC(=O)SC3)CC2)cc1 (centres unmarked) [Compound 43, 5-[1-[2-Hydroxy-2-(4-methylphenyl)ethyl]-1,2,5,6-tetrahydropyrid-4-yl]-3H,6H-1,3,4-thiadiazin-2-one] | 57.2 | 85.2
3 | O=C1CSC(C2=CCN(CC(O)c3ccc(Cl)cc3Cl)CC2)=NN1 (centres unmarked) [Compound 17, 2-[1-[2-(2,4-Dichlorophenyl)-2-hydroxyethyl]-1,2,5,6-tetrahydropyrid-4-yl]-4H,6H-1,3,4-thiadiazin-5-one] | 45.0 | 85.8
4 | O=C1CSC(C2=CCN(CC(O)c3ccccc3[N+](=O)[O-])CC2)=NN1 (centres unmarked) [Compound 29, 2-[1-[2-Hydroxy-2-(2-nitrophenyl)ethyl]-1,2,5,6-tetrahydropyrid-4-yl]-4H,6H-1,3,4-thiadiazin-5-one] | 79.3 | 101
5 | N#Cc1ccc(C(O)CN2CC=C(C3=NNC(=O)SC3)CC2)cc1 (centres unmarked) [Compound 47, 5-[1-[2-(4-Cyanophenyl)-2-hydroxyethyl]-1,2,5,6-tetrahydropyrid-4-yl]-3H,6H-1,3,4-thiadiazin-2-one] | 81.4 | 78.2
6 | O=C1CNC(C2=CCN(CC(O)c3ccc([N+](=O)[O-])cc3)CC2)=NN1 (centres unmarked) [Compound 60, 4,5-Dihydro-3-[1-[2-hydroxy-2-(4-nitrophenyl)ethyl]-1,2,5,6-tetrahydropyrid-4-yl]-1,2,4-triazin-6(1H)-one] | 43.8 | 92.6
7 | CC1SC(C2=CCN(CC(O)c3ccc(Cl)cc3)CC2)=NNC1=O (centres unmarked) [Compound 14, 2-[1-[2-(4-Chlorophenyl)-2-hydroxyethyl]-1,2,5,6-tetrahydropyrid-4-yl]-6-methyl-4H,6H-1,3,4-thiadiazin-5-one] | 26.3 | 73.5
8 | O=C1CSC(C2=CCN(CC(O)c3ccc(Cl)cc3)CC2)=NN1 (centres unmarked) [Compound 13, 2-[1-[2-(4-Chlorophenyl)-2-hydroxyethyl]-1,2,5,6-tetrahydropyrid-4-yl]-4H,6H-1,3,4-thiadiazin-5-one] | 72.2 | 93.4
9 | O=C1NN=C(C2=CCN(CC(O)c3cccc(C(F)(F)F)c3)CC2)CS1 (centres unmarked) [Compound 48, 5-[1-[2-Hydroxy-2-[3-(trifluoromethyl)phenyl]ethyl]-1,2,5,6-tetrahydropyrid-4-yl]-3H,6H-1,3,4-thiadiazin-2-one] | 45.4 | 77.7
10 | O=C1CSC(C2=CCN(CC(O)c3cccc([N+](=O)[O-])c3)CC2)=NN1 (centres unmarked) [Compound 30, 2-[1-[2-Hydroxy-2-(3-nitrophenyl)ethyl]-1,2,5,6-tetrahydropyrid-4-yl]-4H,6H-1,3,4-thiadiazin-5-one] | 113.9 | 100
11 | O=C1CCC(C2=CCN(CC(O)c3ccc([N+](=O)[O-])cc3)CC2)=NN1 (centres unmarked) [Compound 53, 4,5-Dihydro-6-[1-[2-hydroxy-2-(4-nitrophenyl)ethyl]-1,2,5,6-tetrahydropyrid-4-yl]pyridazin-3 (2H)-one] | 102.9 | 87.8
12 | COc1cccc(C(O)CN2CC=C(C3=NNC(=O)CS3)CC2)c1 (centres unmarked) [Compound 7, 2-[1-[2-Hydroxy-2-(3-methoxyphenyl)ethyl]-1,2,5,6-tetrahydropyrid-4-yl]-4H,6H-1,3,4-thiadiazin-5-one] | 54.0 | 95.2
13 | O=C1CSC(C2=CCN(CC(O)c3ccc4c(c3)OCO4)CC2)=NN1 (centres unmarked) [Compound 32, 2-[1-[2-Hydroxy-2-[3,4-(methylenedioxy)phenyl]ethyl]-1,2,5,6-tetrahydropyrid-4-yl]-4H,6H-1,3,4-thiadiazin-5-one] | 63.9 | 93.1
14 | COc1ccc(C(CN2CC=C(C3=NNC(=O)CS3)CC2)OC(C)C)cc1 (centres unmarked) [Compound 71, 2-[1-[2-Isopropoxy-2-(4-methoxyphenyl)ethyl]-1,2,5,6-tetrahydropyrid-4-yl]-4H,6H-1,3,4-thiadiazin-5-one] | 25.3 | 98.7
15 | O=C1CSC(C2=CCN(CC(O)c3ccc(F)cc3)CC2)=NN1 (centres unmarked) [Compound 35, 2-[1-[2-(4-Fluorophenyl)-2-hydroxyethyl]-1,2,5,6-tetrahydropyrid-4-yl]-4H,6H-1,3,4-thiadiazin-5-one] | 63.5 | 90.7
16 | O=C1CCC(C2=CCN(CC(O)c3ccccc3Cl)CC2)=NN1 (centres unmarked) [Compound 50, 6-[1-[2-(2-Chlorophenyl)-2-hydroxyethyl]-1,2,5,6-tetrahydropyrid-4-yl]-4,5-dihydropyridazin-3 (2H)-one] | 38.9 | 98.6

Row | SMILES | Inotropic Effect [1] [%] | activity at 30 µM (right atria) [%]
17 | Cc1ccc(C(O)CN2CC=C(C3=NNC(=O)C(C)S3)CC2)cc1 (centres unmarked) [Compound 22, 2-[1-[2-Hydroxy-2-(4-methylphenyl)ethyl]-1,2,5,6-tetrahydropyrid-4-yl]-6-methyl-4H,6H-1,3,4-thiadiazin-5-one] | 30.4 | 76.7
18 | Cc1ccc(C(O)CN2CC=C(C3=NNC(=O)CS3)CC2)cc1 (centres unmarked) [Compound 21, 2-[1-[2-Hydroxy-2-(4-methylphenyl)ethyl]-1,2,5,6-tetrahydropyrid-4-yl]-4H,6H-1,3,4-thiadiazin-5-one] | 92.6 | 84.5
19 | O=C1NN=C(c2ccncc2)CS1 [b, 5-(4-Pyridyl)-3H,6H-1,3,4-thiadiazin-2-one, reference compound] | 36.2 | 117
20 | O=C1CCC(C2=CCN(CC(O)c3ccccc3C(F)(F)F)CC2)=NN1 (centres unmarked) [Compound 54, 4,5-Dihydro-6-[1-[2-hydroxy-2-[2-(trifluoromethyl)phenyl]ethyl]-1,2,5,6-tetrahydropyrid-4-yl]pyridazin-3 (2H) -one] | 25.2 | 97.3
21 | Cc1cccc(C(O)CN2CC=C(C3=NNC(=O)CS3)CC2)c1 (centres unmarked) [Compound 20, 2-[1-[2-Hydroxy-2-(3-methylphenyl)ethyl]-1,2,5,6-tetrahydropyrid-4-yl]-4H,6H-1,3,4-thiadiazin-5-one] | 65.7 | 87.5
22 | O=C1NN=C(C2=CCN(CC(O)c3cccc(O)c3)CC2)CS1 (centres unmarked) [Compound 44, 5-[1-[2-Hydroxy-2-(3-hydroxyphenyl)ethyl]-1,2,5,6-tetrahydropyrid-4-yl]-3H,6H-1,3,4-thiadiazin-2-one] | 39.9 | 101
23 | O=C1CCC(c2ccncc2)=NN1 [c, 4,5-Dihydro-6-(4-pyridyl)-pyridazin-3(2H)-one, reference compound] | 7.3 | 110
24 | O=C1NN=C(C2=CCN(CC(O)c3ccc(F)cc3)CC2)CS1 (centres unmarked) [Compound 46, 5-[1-[2-(4-Fluorophenyl)-2-hydroxyethyl]-1,2,5,6-tetrahydropyrid-4-yl]-3H,6H-1,3,4-thiadiazin-2-one] | 61.9 | 81.6
25 | COc1ccc(C(O)CN2CC=C(C3=NNC(=O)CS3)CC2)cc1 (centres unmarked) [Compound 1, 2-[1-[2-Hydroxy-2-(4-methoxyphenyl)ethyl]-1,2,5,6-tetrahydropyrid-4-yl]-4H,6H-1,3,4-thiadiazin-5-one] | 55.7 | 87.6
26 | O=C1CSC(c2ccncc2)=NN1 [a, 2-(4-Pyridyl)-4H,6H-1,3,4-thiadiazin-5-one, reference compound] | 22.2 | 159
27 | O=C1NN=C(C2=CCN(CC(O)c3ccc4ccccc4c3)CC2)CS1 (centres unmarked) [Compound 69, 5-[1-[2-Hydroxy-2-(2-naphthyl)ethyl]-1,2,5,6-tetrahydropyrid-4-yl]-3H, 6H-1,3,4-thiadiazin-2-one] | 28.6 | 79.7
28 | COc1ccc(C(CN2CC=C(C3=NNC(=O)CS3)CC2)OC)cc1 (centres unmarked) [Compound 70, 2-[1-[2-Methoxy-2-(4-methoxyphenyl)ethyl]-1,2,5,6-tetrahydropyrid-4-y1]-4H,6H-1,3,4-thiadiazin-5-one] | 56.0 | 99.2
29 | COc1ccc(C(O)CN2CC=C(C3=NNC(=O)SC3)CC2)cc1 (centres unmarked) [Compound 39, 5-[1-[2-Hydroxy-2-(4-methoxyphenyl)ethyl]-1,2,5,6tetra-hydropyrid-4-yl]-3H,6H-1,3,4-thiadiazin-2-one] | 28.3 | 75.7
30 | N#Cc1ccc(C(O)CN2CC=C(C3=NNC(=O)CN3)CC2)cc1 (centres unmarked) [Compound 64, 3-[1-[2-(4-Cyanophenyl)-2-hydroxyethyl]-1,2,5,6-tetrahydropyrid-4-yl]-4,5-dihydro-1,2,4-triazin-6(1H)-one] | 23.8 | 93
31 | O=C1NN=C(C2=CCN(CC(O)c3ccc([N+](=O)[O-])cc3)CC2)CS1 (centres unmarked) [Compound 45, 5-[1-[2-Hydroxy-2-(4-nitrophenyl)ethyl]-1,2,5,6-tetrahydropyrid-4-yl]-3H,6H-1,3,4-thiadiazin-2-one] | 99.5 | 79.1
